# Counter-ions that a name gives are not always drawn.
# Test: in vitro
# Format: in vitro ADME, human
# Details: Table 4; human serum, 37° C.
# Source text: Table 4 lists the serum half-lives for several model compounds and two representative pharmaceutical agent-chemical modifier complexes using an in vitro assay system described in the Experimental section below. Of course, the serum half-lives will vary in vivo depending upon the age and health condition of the patient. Each complex comprises a model compound or a pharmaceutical agent, a spacer group, and a chemical modifier. Many of the model compounds utilize 4-nitrophenyl(ethanol, propanol, or cyclohexanol) or 4-nitrophenylethylamine as the "model" pharmaceutical agent. A more complete listing of serum half-lives may be found in the Experimental section below.
# General procedure for serum hydrolysis of pharmaceutical agent-modifier complexes
# Stock solutions (6 mM) of the pharmaceutical agent-modifier complexes were prepared in ethanol (by vortexing, sonication or warming at 37° C. if necessary). If required for solubility, a drop of dimethylsulfoxide, dimethylformamide or methanol may be added. (Acetonitrile cannot be used because it deactivates the serum enzymes.)
# HPLC separation methods were established for each study by dilution of the above stock solution (6 μl) in acetonitrile (1 ml) to give a 36 μM solution. Samples (10 μl) were injected onto a Nucleosil 5C8 (250×4 mmID) and guard column (11×4 mm ID) and eluted with a mobile phase of approximately 65% HPLC grade water and 35% of a solution of 0.1% trifluoroacetic acid in acetonitrile, the exact proportions being adjusted in each case to give optimum separation and run times.
# Freshly defrosted human serum (3 ml, Sigma) was warmed at 37° C. for five minutes and then 60 μl of the agent-modifier complex stock solution was added with vortexing. […] The aliquots were added to 800 μl of 2% zinc sulfate solution in a 1.5 ml disposable microcentrifuge tube, vortexed immediately and centrifuged at 14,000 RPM for 3 minutes. The supernatants (10 μl) were then injected onto the HPLC and peak areas were used to determine the % remaining. Serum blanks were prepared similarly by addition of serum to the zinc sulfate solution followed by centrifugation, and time=0 samples were also prepared by adding serum to the zinc sulfate solution followed by addition of the complex and separation by centrifugation. The time=0 samples, as well as the original stock solutions, were also used to study the stability of the complex in the absence of enzyme. Half-lives were calculated using the equation
# by plotting time (x) vs. ln % remaining (y) to obtain the slope (m) and the y intercept (b).
row,SMILES,In vitro Half-Life [min]
1,CC(=O)OC(CC(=O)OCCCCCCCCCC(=O)OCC(=O)OC1=CC2=CC[C@H]3[C@@H]4CC[C@H](C(C)=O)[C@@]4(C)CC[C@@H]3[C@@]2(C)CC1)C[N+](C)(C)C (some centres unmarked) [Progesterone 3-{2-O-[10-O-(O-acetylcarnitinyl)decanoyl]glycolic acid} enol ester],28.9

# Same assay, conditions: Table 5; human serum, 37° C.
row,SMILES,Serum Half-life [min]
1,CC(=O)OC(CC(=O)OCCCCCCCCCC(=O)OCC(=O)OC1=CC2=CC[C@H]3[C@@H]4CC[C@H](C(C)=O)[C@@]4(C)CC[C@@H]3[C@@]2(C)CC1)C[N+](C)(C)C (some centres unmarked) [Progesterone 3-{2-O-[10-O-(O-acetylcarnitinyl)decanoyl]glycolic acid} enol ester],28.9
2,"CC1OC(OC2C(C)OC(OC3C(C)OC(OC4CCC5(C)C(CCC6C5CC(OC(=O)OCOC(=O)CCCCC[N+](C)(C)C)C5(C)C(C7=CC(=O)OC7)CCC65O)C4)CC3OC(=O)OCOC(=O)CCCCC[N+](C)(C)C)CC2OC(=O)OCOC(=O)CCCCC[N+](C)(C)C)CC2OC(=O)OC12 (centres unmarked) [digoxin-3',3"",12-tris-(6-trimethylaminohexanoyloxymethyl carbonate)-3'"",4""""-cyclic carbonate, tribromide salt]",840

# Same assay, conditions: human, serum
row,SMILES,Serum Half-life [min]
1,"C#CC[N+](C)(C(C)Cc1ccccc1)C(C)OC(=O)CCC.[Br-] (centres unmarked) [deprenyl-N-butyroyloxy-1-ethyl, bromide salt]",28

# Same assay, conditions: human, serum, Table 5; human serum, 37° C.; read-out: Serum Half-life (converted)
row,SMILES,half-life [min]
1,COc1ccc2c(c1)c(CC(=O)O[C@H](CC(=O)O)C[N+](C)(C)C)c(C)n2C(=O)c1ccc(Cl)cc1 [O-indomethacinyl-(L-carnitine hydrochloride)],> 30
2,CC(=O)OC1CC(C(=O)OCCc2ccc([N+](=O)[O-])cc2)[N+](C)(C)C1 (centres unmarked) [betonicine-O-acetate 4-nitrophenethyl ester],6
3,"C#CC[N+](C)(COC(C)=O)C(C)Cc1ccccc1 (centres unmarked) [deprenyl-N-acetoxymethyl, bromide salt]",4.2
4,"C#CC[N+](C)(COC(=O)c1ccccc1)C(C)Cc1ccccc1 (centres unmarked) [deprenyl-N-benzoyloxymethyl, iodide salt]",5
5,"C#CC[N+](C)(COC(=O)CCC)C(C)Cc1ccccc1 (centres unmarked) [deprenyl-N-butyroyloxymethyl, iodide salt]",0.283
6,"C#CC[N+](C)(COC(=O)OCC)C(C)Cc1ccccc1 (centres unmarked) [deprenyl-N-ethoxycarbonyloxymethyl, iodide salt]",1.18
7,"C#CC[N+](C)(COC(=O)OCCCCCCCC)C(C)Cc1ccccc1 (centres unmarked) [deprenyl-N-octyloxycarbonyloxymethyl, iodide salt]",0.433
8,"C#CC[N+](C)(COC(=O)C(C)(C)C)C(C)Cc1ccccc1 (centres unmarked) [deprenyl-N-pivaloyloxymethyl, iodide salt]",20
9,C[C@]12CC[C@H](OC(=O)CCCCCN3CCOCC3)C[C@H]1CC[C@@H]1[C@@H]2CC[C@]2(C)[C@@H](C3=CC(=O)OC3)CC[C@]12O [digitoxigenin-3-(6-morpholino-hexanoate)],14900
10,"CC(=O)O[C@H](CC(=O)O[C@H]1CC[C@@]2(C)[C@H](CC[C@@H]3[C@@H]2CC[C@]2(C)[C@@H](C4=CC(=O)OC4)CC[C@]32O)C1)C[N+](C)(C)C [digitoxigenin-3-(O-acetyl-L-carnitine) ester, chloride salt]",324
11,C[C@]12CC[C@H](OC(=O)OCC[N+](C)(C)C)C[C@H]1CC[C@@H]1[C@@H]2CC[C@]2(C)[C@@H](C3=CC(=O)OC3)CC[C@]12O [digitoxigenin-3-(O-choline chloride carbonate) ester],13.6
12,"CCCCCCCCCCCCCCCC(=O)O[C@H](CC(=O)O[C@H]1CC[C@@]2(C)[C@H](CC[C@@H]3[C@@H]2CC[C@]2(C)[C@@H](C4=CC(=O)OC4)CC[C@]32O)C1)C[N+](C)(C)C [digitoxigenin-3-(O-palmityl-L-carnitine) ester, chloride salt]",~180
13,"CC(=O)OC(CC(=O)NCCCCCCOC(=O)O[C@H]1[C@@H](O)C[C@H](O[C@H]2[C@@H](O)C[C@H](O[C@H]3[C@@H](O)C[C@H](O[C@H]4CC[C@@]5(C)[C@H](CC[C@@H]6[C@@H]5CC[C@]5(C)[C@@H](C7=CC(=O)OC7)CC[C@]65O)C4)O[C@@H]3C)O[C@@H]2C)O[C@@H]1C)C[N+](C)(C)C (some centres unmarked) [digitoxin-4""'-6-[O-(acetylcarnitinamido)hexyl]carbonate ester]",34.8
14,"C[C@H]1O[C@@H](O[C@H]2[C@@H](O)C[C@H](O[C@H]3[C@@H](O)C[C@H](O[C@H]4CC[C@@]5(C)[C@H](CC[C@@H]6[C@@H]5CC[C@]5(C)[C@@H](C7=CC(=O)OC7)CC[C@]65O)C4)O[C@@H]3C)O[C@@H]2C)C[C@H](O)[C@@H]1OC(=O)OCC[N+](C)(C)C [digitoxin-4""'-(choline chloride) carbonate ester]",5.3
15,"C[C@H]1O[C@@H](O[C@H]2[C@@H](O)C[C@H](O[C@H]3[C@@H](O)C[C@H](O[C@H]4CC[C@@]5(C)[C@H](CC[C@@H]6[C@@H]5C[C@@H](OC(=O)OCOC(=O)CCCCC[N+](C)(C)C)[C@]5(C)[C@@H](C7=CC(=O)OC7)CC[C@]65O)C4)O[C@@H]3C)O[C@@H]2C)C[C@@H]2OC(=O)O[C@@H]21 [digoxin 12-(6-trimethylaminohexanoyloxymethyl carbonate)-3""',4""'-cyclic carbonate, bromide salt]",168
16,"CC1OC(OC2CCC3(C)C(CCC4C3CC(O)C3(C)C(C5=CC(=O)OC5)CCC43O)C2)CC(O)C1OC1CC(O)C(OC2CC3OC(=O)OC3C(C)O2)C(C)O1 (centres unmarked) [digoxin-3'"",4'""-cyclic carbonate]",0.15
17,"CC1OC(OC2C(C)OC(OC3C(C)OC(OC4CCC5(C)C(CCC6C5CC(O)C5(C)C(C7=CC(=O)OC7)CCC65O)C4)CC3OC(=O)OCOC(=O)CCCCC[N+](C)(C)C)CC2OC(=O)OCOC(=O)CCCCC[N+](C)(C)C)CC2OC(=O)OC12 (centres unmarked) [digoxin-3',3""-bis-(6-trimethylaminohexanoyloxymethyl carbonate)-3'"",4'""-cyclic carbonate, bromide salt]",600
18,"CC1OC(OC2C(C)OC(OC3C(C)OC(OC4CCC5(C)C(CCC6C5CC(O)C5(C)C(C7=CC(=O)OC7)CCC65O)C4)CC3OC(=O)OCC[N+](C)(C)C)CC2OC(=O)OCC[N+](C)(C)C)CC2OC(=O)OC12 (centres unmarked) [digoxin-3',3""-bis-(choline carbonate)-3'"",4'""-cyclic carbonate, dibromide salt]",2040
19,"C[C@H]1O[C@@H](O[C@H]2[C@@H](O)C[C@H](O[C@H]3[C@@H](O)C[C@H](O[C@H]4CC[C@@]5(C)[C@H](CC[C@@H]6[C@@H]5C[C@@H](O)[C@]5(C)[C@@H](C7=CC(=O)OC7)CC[C@]65O)C4)O[C@@H]3C)O[C@@H]2C)C[C@H](O)[C@@H]1OC(=O)CCCOC(=O)CCC[N+](C)(C)C [digoxin-4""'-4-(4-trimethylaminobutyroyloxy)butyrate, bromide salt]",420
20,"CCCCCCCCCCCCCCCC(=O)OC(CC(=O)NCCCCCCOC(=O)OC1C(O)CC(OC2C(O)CC(OC3C(O)CC(OC4CCC5(C)C(CCC6C5CC(O)C5(C)C(C7=CC(=O)OC7)CCC65O)C4)OC3C)OC2C)OC1C)C[N+](C)(C)C (centres unmarked) [digoxin-4""'-6-O-palmitoylcarnitinamido)hexyl carbonate, chloride salt]",21
21,"CC1OC(OC2C(O)CC(OC3C(O)CC(OC4CCC5(C)C(CCC6C5CC(O)C5(C)C(C7=CC(=O)OC7)CCC65O)C4)OC3C)OC2C)CC(O)C1OC(=O)OCCCCCCOC(=O)C[N+](C)(C)C (centres unmarked) [digoxin-4""'-[1-(6-betainoyloxyhexyl)]carbonate, chloride salt]",21
22,"CC(=O)OC1CC(C(=O)O[C@H]2[C@@H](O)C[C@H](O[C@H]3[C@@H](O)C[C@H](O[C@H]4[C@@H](O)C[C@H](O[C@H]5CC[C@@]6(C)[C@H](CC[C@@H]7[C@@H]6C[C@@H](O)[C@]6(C)[C@@H](C8=CC(=O)OC8)CC[C@]76O)C5)O[C@@H]4C)O[C@@H]3C)O[C@@H]2C)[N+](C)(C)C1 (some centres unmarked) [digoxin-4""'-[(O-acetyl)-betonicine ester], chloride salt]",1.8
23,"CC1OC(OC2C(O)CC(OC3C(O)CC(OC4CCC5(C)C(CCC6C5CC(O)C5(C)C(C7=CC(=O)OC7)CCC65O)C4)OC3C)OC2C)CC(O)C1OC(=O)CCCN(C)C (centres unmarked) [digoxin-4'""-4-(dimethylamino)butyrate]",84
24,"CC1OC(OC2C(O)CC(OC3C(O)CC(OC4CCC5(C)C(CCC6C5CC(O)C5(C)C(C7=CC(=O)OC7)CCC65O)C4)OC3C)OC2C)CC(O)C1OC(=O)CCC[N+](C)(C)C (centres unmarked) [digoxin-4'""-(4-trimethylamino)butyrate bromide]",420
25,"CC(=O)OC(CC(=O)OC1C(O)CC(OC2C(O)CC(OC3C(O)CC(OC4CCC5(C)C(CCC6C5CC(O)C5(C)C(C7=CC(=O)OC7)CCC65O)C4)OC3C)OC2C)OC1C)C[N+](C)(C)C (centres unmarked) [digoxin-4'""-(O-acetylcarnitinate) chloride salt]",5
26,"CCCCCCCCCCCCCCCC(=O)OC(CC(=O)OC1C(O)CC(OC2C(O)CC(OC3C(O)CC(OC4CCC5(C)C(CCC6C5CC(O)C5(C)C(C7=CC(=O)OC7)CCC65O)C4)OC3C)OC2C)OC1C)C[N+](C)(C)C (centres unmarked) [digoxin-4'""-(O-palmitoylcarnitinate) chloride salt]",19

# Same assay, conditions: human, serum, untitled table of digoxin derivatives (position/substituent); assay not given; read-out: Half Life (converted)
row,SMILES,half-life [min]
1,"C[C@H]1O[C@@H](O[C@H]2[C@@H](O)C[C@H](O[C@H]3[C@@H](O)C[C@H](O[C@H]4CC[C@@]5(C)[C@H](CC[C@@H]6[C@@H]5C[C@@H](OC(=O)OCOC(=O)CCCCC[N+](C)(C)C)[C@]5(C)[C@@H](C7=CC(=O)OC7)CC[C@]65O)C4)O[C@@H]3C)O[C@@H]2C)C[C@@H]2OC(=O)O[C@@H]21 [digoxin 12-(6-trimethylaminohexanoyloxymethyl carbonate)-3""',4""'-cyclic carbonate, bromide salt]",168
2,"CC1OC(OC2C(C)OC(OC3C(C)OC(OC4CCC5(C)C(CCC6C5CC(O)C5(C)C(C7=CC(=O)OC7)CCC65O)C4)CC3OC(=O)OCOC(=O)CCCCC[N+](C)(C)C)CC2OC(=O)OCOC(=O)CCCCC[N+](C)(C)C)CC2OC(=O)OC12 (centres unmarked) [digoxin-3',3""-bis-(6-trimethylaminohexanoyloxymethyl carbonate)-3'"",4'""-cyclic carbonate, bromide salt]",600

# From patent US5607691A, “Compositions and methods for enhanced drug delivery” (priority 1995, dated 1997)
